Literature values in patent US20130034605A1, “EXTENDED RELEASE PHARMACEUTICAL COMPOSITIONS CONTAINING PALIPERIDONE” (MICRO LABS LIMITED, priority 2011, published 2013).
Like-named read-outs stand apart in the source and are kept apart here.

In the case of `Cc1nc2n(c(=O)c1CCN1CCC(c3noc4cc(F)ccc34)CC1)CCCC2O` (racemic) [Paliperidone, (RS)-3-[2-[4-(6-fluorobenzo[d]isoxazol-3-yl)-1-piperidyl]ethyl]-7-hydroxy-4-methyl-1,5-diazabicyclo[4.4.0]deca-3,5-dien-2-one], the Solubility (in 0.1 N hydrochloric acid) is given as “soluble”, the Solubility (in methanol) is given as “soluble” and the Solubility (in methylene chloride) is given as “freely soluble”. The Solubility (in water) was “practically insoluble”.
